Data taken from patent EP4778933A1 (Chengdu Hyperway Pharmaceuticals Co., Ltd., priority 2023, dated 2025).
Where two headings read alike, the source gives them in different places.

Key:
[1] = system: KRAS G12D-mediated ERK phosphorylation; experiment: Inhibition of KRAS G12D-mediated ERK phosphorylation in AGS cells (in-cell pERK/GAPDH immunofluorescence); format: cell-based; conditions: AGS cells, 3 h incubation, read-out: Inhibitory activity on ERK phosphorylation (IC50) AGS-G12D
Summary of the method: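 AGS, SW480, NCI H358 and KP2 cells were seeded overnight, then treated with compounds for 3 h at 37°C. After fixation, permeabilization and blocking, pERK and GAPDH were immunostained and read by two-colour infrared fluorescence. The pERK/GAPDH ratio was normalized to DMSO and 10 µM reference controls, and IC50 was fitted with a four-parameter logistic model.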

GP2D (KRASG12D) = experiment: 3D cell proliferation inhibition test (CellTiter-Glo 3D, 7 days), GP2D; format: cell-based; conditions: 168 h, read-out: Inhibitory activity on cell proliferation (IC50) GP2D (KRASG12D)
Protocol: (§1) The diluted compounds to be tested were added to 384-well low-adhesion KRAS mutant types (such as GP2D, NCI H358, LoVo, RKN and KP2) of cell culture plates by using a nanoliter pipetting system (LABCYTE, P-0200). Then, the cells were plated and incubated in a 37°C, 5% CO2 incubator for 7 days. Afterward, CellTiter-Glo® 3D reagent was added, and the luminescent values were read by an Envision multifunctional microplate reader (the luminescent signal is proportional to the amount of ATP in the system, and the ATP content directly represents the number of viable cells in the system). Finally, the IC50 values (half-maximal inhibitory concentration) of the compounds were obtained by the XLFIT software using the nonlinear fitting formula.
(§2) • a) The diluted compounds to be tested were added to 384-well low-adhesion KRAS mutant types of cell culture plates by using a nanoliter pipetting system. • b) Cells were seeded into the 384-well plates in a) and then centrifuged at 1000 rpm for 1 min at room temperature, with a final DMSO concentration of compound being 0.5%. The plates were then incubated in a 5% CO2 constant-temperature incubator at 37°C for 7 days. • c) CellTiter-Glo® 3D was added to the 384-well cell culture plates in b), shaken in the dark, and incubated at room temperature. • d) The luminescence values were read by using an Envision multifunctional microplate reader.
(§3) The IC50 (half-maximal inhibitory concentration) values of the compounds were obtained by using XLFIT software according to the following nonlinear fitting formula: Y = Bottom + (Top−Bottom)/(1+10^(∧)((LogIC50−X)×HillSlope)) [formula] • X: log value of compound concentration. • Y: inhibition rate (%) [formula] • Negative control: DMSO. • Positive control: Medium only.

NCI H358 (KRAS G12C) = experiment: 3D cell proliferation inhibition test (CellTiter-Glo 3D, 7 days), NCI H358; format: cell-based; conditions: Homo sapiens, NCI-H358, 168 h, read-out: Inhibitory activity on cell proliferation (IC50) NCI H358 (KRAS G12C)
Protocol: as §1
as §2, with “reader. […]” for “reader.”

RKN (KRAS G12V) = experiment: 3D cell proliferation inhibition test (CellTiter-Glo 3D, 7 days), RKN; format: cell-based; conditions: 168 h, read-out: Inhibitory activity on cell proliferation (IC50) RKN (KRAS G12V)
Protocol: as §1, §2, §3

KP2 (KRAS G12R) = experiment: 3D cell proliferation inhibition test (CellTiter-Glo 3D, 7 days), KP2; format: cell-based; conditions: 168 h, read-out: Inhibitory activity on cell proliferation (IC50) KP2 (KRAS G12R)
Protocol: as §1
as §2, with “reader. […]” for “reader.”

[2] = system: human colon cancer GP2D mouse xenograft tumors; experiment: In vivo drug efficacy, GP2D subcutaneous xenograft tumor model; parameters: species or system Balb/c nude mouse; conditions: 30 mg/kg, PO; for inhibitory effects on human colon cancer GP2D mouse xenograft tumors: BID, 28 days; for Tumor volume inhibition rate (TGI): GP2D xenograft, BID × 28, day 28
Protocol: A human colon cancer GP2D cell subcutaneous xenograft tumor Balb/c nude mouse model was established. GP2D tumor cells resuspended in DMEM medium were inoculated subcutaneously on the right side of the experimental animal at 1×10^7 + gel/0.1 mL. When the tumor grew to about 150-200 mm^3, administration in groups began, with 5 animals in each group. On the day of the experiment, the animals were given corresponding drugs according to the groups. The first group G1 was set as a solvent group, and 50 mM citrate buffer (pH 5.0) + 10% Captisol was given by gavage alone. The second group G2 was given a 50 mM citrate buffer (pH 5.0) + 10% Captisol of compound 26. The third group G3 was given a 50 mM citrate buffer (pH 5.0) + 10% Captisol of compound 31. Table 5: Study on effect of test substances on animal tumor size in human colon cancer GP2D mouse xenograft tumor model
(§4) During the experiment, the body weight and tumor size of the animals were measured twice a week, and the clinical symptoms of the animals were observed and recorded every day. Each drug administration was based on the most recent weighing of the animals.
(§5) The tumor was measured with a digital vernier caliper to measure the length (a) and width (b). The tumor volume (TV) was calculated using the following formula: TV = a × b^2 /2. [formula]

[3] = system: human ovarian cancer RKN mouse xenograft tumors; experiment: In vivo drug efficacy, RKN subcutaneous xenograft tumor model; parameters: species or system Balb/c nude mice; conditions: 50 mg/kg, PO; for inhibitory effects on human ovarian cancer RKN mouse xenograft tumors: BID, 28 days; for Tumor volume inhibition rate (TGI): RKN xenograft, BID × 28, day 28
Protocol: A subcutaneous xenograft tumor model of human ovarian cancer RKN (derived from uterine leiomyosarcoma) cells was established in Balb/c nude mice. RKN tumor cells resuspended in Ham's F12 medium were inoculated subcutaneously on the right side of the experimental animals at 5×10^6 + gel/0.1 mL. When the tumor grew to about 150-200 mm^3, 20 animals having relatively uniform tumor volumes were selected for group administration, with a total of 4 groups, 5 animals in each group. On the day of the experiment, the animals were given the corresponding drugs according to the groups. The first group G1 was set as a solvent group, and 50 mM citrate buffer (pH 5.0) + 10% Captisol was given by gavage alone. The second group G2 was given a 50 mM citrate buffer (pH 5.0) + 10% Captisol of compound 21. The third group G3 was given a 50 mM citrate buffer (pH 5.0) + 10% Captisol of compound 26. The fourth group G4 was given a 50mM citrate buffer (pH 5.0) + 10% Captisol of compound 31. Table 7: Study on effect of test substances on animal tumor size in the human ovarian cancer RKN mouse xenograft tumor model
as §4, §5

IC50 [1] [nM] | SMILES | IC50 ([1]; Homo sapiens, AGS, 3 h) [nM] | IC50 (GP2D (KRASG12D)) [nM] | IC50 (NCI H358 (KRAS G12C)) [nM] | IC50 (RKN (KRAS G12V)) [nM] | IC50 (KP2 (KRAS G12R)) [nM] | inhibitory effects on human colon cancer GP2D mouse xenograft tumors [2] | Tumor volume inhibition rate (TGI) [2] [%] | inhibitory effects on human ovarian cancer RKN mouse xenograft tumors [3] | Tumor volume inhibition rate (TGI) [3] [%]
– | CC1(O)COCCN(c2nc(OCC34CCCN3C(c3cc(F)c(F)c(F)c3)CC4)nc3c(F)c(-c4cccc5sc(N)c(C#N)c45)c(Br)cc23)C1 (single isomer, unassigned) [Example 26, 2-amino-4-[6-bromo-8-fluoro-4-(6-hydroxy-6-methyl-1,4-oxazepan-4-yl)-2-({[3-(3,4,5-trifluoropheny 1)-2,3,5,6,7,7a-hexahydro-1H-pyrrolizin-7a-yl]methyl}oxy)quinazolin-7-yl]benzo[b]thiophene-3-carb onitrile] | 2.7 | 2.99 | 1.03 | 4.32 | 56.6 | significant inhibitory effects | 72.7 | significant inhibitory effects | 116
1.9 | CC1(O)COCCN(c2nc(OCC34CCCN3C(c3cc(F)c(F)c(F)c3)CC4)nc3c(F)c(-c4cccc5sc(N)c(C#N)c45)c(I)cc23)C1 (single isomer, unassigned) [Example 31, 2-amino-4-[6-iodo-8-fluoro-4-(6-hydroxy-6-methyl-1,4-oxazepan-4-yl)-2-({[3-(3,4,5-trifluorophenyl)-2,3,5,6,7,7a-hexahydro-1H-pyrrolizin-7a-yl]methyl}oxy)quinazolin-7-yl]benzo[b]thiophene-3-carbonitrile] | – | 1.75 | 0.69 | 3.69 | 59.1 | significant inhibitory effects | 86.7 | significant inhibitory effects | 116
